Test results from publication PMC8585037 (International Journal of Molecular Sciences, 2021).
Values joined by “and” are separate entries in the source; they are usually repeats but may differ in a detail not shown here. Equal entries are not always repeated.

Experiments:
DAT = biological target: T1, DAT (Rattus norvegicus, UniProt P23977); assay: Synaptosomal uptake of [3H]DA in rat brain synaptosomes; type: biochemical
T1 construct: Synaptosomes from rat cerebrum were isolated as described by Bogen et al; from tissue; host or cells: rat cerebrum synaptosomes
T1 sequence (P23977 whole entry): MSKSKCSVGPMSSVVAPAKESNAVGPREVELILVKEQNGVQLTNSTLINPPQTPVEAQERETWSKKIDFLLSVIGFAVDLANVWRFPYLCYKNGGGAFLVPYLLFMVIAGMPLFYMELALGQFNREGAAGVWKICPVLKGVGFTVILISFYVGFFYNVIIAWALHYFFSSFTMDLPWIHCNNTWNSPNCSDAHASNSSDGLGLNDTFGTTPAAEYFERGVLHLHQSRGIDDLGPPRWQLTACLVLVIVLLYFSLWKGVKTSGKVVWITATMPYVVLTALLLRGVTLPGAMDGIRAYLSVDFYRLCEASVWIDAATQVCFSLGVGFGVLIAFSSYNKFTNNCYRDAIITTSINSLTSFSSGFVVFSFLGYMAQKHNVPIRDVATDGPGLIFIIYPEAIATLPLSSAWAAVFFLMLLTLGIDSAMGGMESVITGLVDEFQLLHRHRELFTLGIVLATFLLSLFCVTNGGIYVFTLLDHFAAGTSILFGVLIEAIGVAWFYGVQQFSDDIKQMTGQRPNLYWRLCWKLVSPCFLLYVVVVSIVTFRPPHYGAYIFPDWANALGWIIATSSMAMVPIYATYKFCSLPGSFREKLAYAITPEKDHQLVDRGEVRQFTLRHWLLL

vesicular DA uptake = test system: vesicular DA uptake; set-up: method as in PMID 16835371; conditions: cited from earlier work
[1] = Pharmacokinetic studies: drug concentrations in mouse blood and brain tissue; conditions: for half-life / Cmax: C57BL/6, mouse, ip
[2] = test system: DA, 3-MT, DOPAC, 5-HT and 5-HIAA in dorsal striatum and nucleus accumbens; assay: Neurotransmitter and metabolite concentrations in post-mortem mouse brain tissue; type: in vivo; conditions: 20 min after 3.75 mg/kg i.p.
C57BL/6J mice = assay: Locomotor activity studies in mice; type: in vivo, mouse; conditions: for dose giving maximal locomotor effect (Emax): i.p.
SERT = biological target: T2, SERT (Rattus norvegicus, UniProt P31652); assay: Synaptosomal uptake of [3H]5-HT in rat brain synaptosomes; type: biochemical; conditions: IC50 Synaptosomes [3H]5-HT Uptake via SERT
T2 construct: Synaptosomes from rat cerebrum were isolated as described by Bogen et al; from tissue; host or cells: rat cerebrum synaptosomes
T2 sequence (P31652 whole entry): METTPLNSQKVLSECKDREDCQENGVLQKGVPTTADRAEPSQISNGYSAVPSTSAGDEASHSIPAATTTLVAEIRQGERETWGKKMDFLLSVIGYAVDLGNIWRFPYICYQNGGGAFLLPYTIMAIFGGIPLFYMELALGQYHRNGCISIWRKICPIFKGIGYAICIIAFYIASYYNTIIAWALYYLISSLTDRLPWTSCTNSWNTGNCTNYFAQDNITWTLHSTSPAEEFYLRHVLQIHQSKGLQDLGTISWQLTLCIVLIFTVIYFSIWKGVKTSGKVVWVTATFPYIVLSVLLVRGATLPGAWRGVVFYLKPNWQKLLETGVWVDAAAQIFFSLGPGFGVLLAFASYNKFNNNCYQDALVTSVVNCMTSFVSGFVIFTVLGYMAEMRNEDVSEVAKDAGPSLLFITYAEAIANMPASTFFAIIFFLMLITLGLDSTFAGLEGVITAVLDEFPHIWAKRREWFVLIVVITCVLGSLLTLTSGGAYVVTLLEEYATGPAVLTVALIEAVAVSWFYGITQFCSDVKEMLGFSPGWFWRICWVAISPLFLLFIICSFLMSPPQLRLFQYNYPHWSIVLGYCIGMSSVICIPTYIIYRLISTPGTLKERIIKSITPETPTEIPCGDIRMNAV

VMAT2 = biological target: T3, VMAT2 (Rattus norvegicus, UniProt Q01827); assay: Vesicular uptake of [3H]DA, [3H]NE and [3H]5-HT in rat brain synaptic vesicles; type: biochemical
T3 construct: Synaptic vesicles from rat cerebrum were isolated as described previously; from tissue; host or cells: rat cerebrum synaptic vesicles
T3 sequence (Q01827 whole entry): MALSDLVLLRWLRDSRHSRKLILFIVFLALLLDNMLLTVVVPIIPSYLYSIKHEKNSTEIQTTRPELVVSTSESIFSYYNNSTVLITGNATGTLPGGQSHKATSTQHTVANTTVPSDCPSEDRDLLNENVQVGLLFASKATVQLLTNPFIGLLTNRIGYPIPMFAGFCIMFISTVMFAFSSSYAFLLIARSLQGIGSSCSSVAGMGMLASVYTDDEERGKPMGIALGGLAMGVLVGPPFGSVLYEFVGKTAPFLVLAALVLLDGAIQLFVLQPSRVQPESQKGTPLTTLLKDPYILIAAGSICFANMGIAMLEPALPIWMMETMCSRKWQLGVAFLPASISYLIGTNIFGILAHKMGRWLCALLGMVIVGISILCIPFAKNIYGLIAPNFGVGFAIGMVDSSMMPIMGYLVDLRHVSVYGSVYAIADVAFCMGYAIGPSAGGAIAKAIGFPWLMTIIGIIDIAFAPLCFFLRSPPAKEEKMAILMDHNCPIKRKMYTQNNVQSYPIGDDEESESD

CD-1 mice [3] = conditions: chronic exposure, 10 mg/kg/day for 30 days; cited from earlier work
Sprague-Dawley rats = test system: Sprague-Dawley rats; set-up: method as in PMID 27265782; conditions: i.p.; cited from earlier work
[4] = cited from earlier work
NET = biological target: T4, NET (Rattus norvegicus, UniProt Q63380); assay: Synaptosomal uptake of [3H]NE in rat brain synaptosomes; type: biochemical
T4 construct: Synaptosomes from rat cerebrum were isolated as described by Bogen et al; from tissue; host or cells: rat cerebrum synaptosomes
T4 sequence (Q63380 1-617): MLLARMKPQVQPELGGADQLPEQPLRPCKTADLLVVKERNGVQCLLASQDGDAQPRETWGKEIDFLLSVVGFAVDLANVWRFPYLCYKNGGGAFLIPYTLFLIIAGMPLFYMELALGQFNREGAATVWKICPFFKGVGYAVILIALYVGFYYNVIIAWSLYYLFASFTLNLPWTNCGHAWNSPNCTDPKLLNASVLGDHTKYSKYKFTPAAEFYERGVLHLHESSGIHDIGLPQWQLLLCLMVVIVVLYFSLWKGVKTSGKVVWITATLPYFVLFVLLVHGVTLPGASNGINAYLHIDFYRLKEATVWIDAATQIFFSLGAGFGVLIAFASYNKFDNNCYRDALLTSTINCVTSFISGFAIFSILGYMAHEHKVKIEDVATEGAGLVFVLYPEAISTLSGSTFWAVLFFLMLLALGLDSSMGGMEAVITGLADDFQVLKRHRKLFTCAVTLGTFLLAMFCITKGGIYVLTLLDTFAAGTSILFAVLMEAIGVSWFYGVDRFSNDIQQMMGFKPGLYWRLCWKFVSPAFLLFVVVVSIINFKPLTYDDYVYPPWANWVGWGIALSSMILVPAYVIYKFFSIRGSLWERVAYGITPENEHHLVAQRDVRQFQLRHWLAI

CD-1 mice [5] = test system: CD-1 mice; set-up: method as in PMID 32356113, PMID 33770233; conditions: i.p.; cited from earlier work
[6] = mouse, single i.p. injection of 3.75 mg/kg methamphetamine

## CN[C@@H](C)Cc1ccccc1 [methamphetamine]
DAT
  IC50: 0.14 ± 0.01 µM
Vesicular DA uptake
  IC50: 9.1 µM
[1]; brain, 3.75 mg/kg
  half-life: ~45 min
[1]; brain, 3.75 mg/kg, Cmax in brain, mouse, single i.p. injection of 3.75 mg/kg methamphetamine
  Cmax: 4110 ± 150 ng/g
[1]; whole blood, 3.75 mg/kg
  half-life: ~36 min
[1]; whole blood, 3.75 mg/kg, Cmax in blood, mouse, single i.p. injection of 3.75 mg/kg methamphetamine
  Cmax: 910 ± 80 ng/mL
[1]; [6]
  time of Cmax in blood: 5 min
  time of Cmax in brain: 20 min
[2]; Dorsal Striatum
  3-MT concentration: 3.6 ± 0.7 nmol/g
  5-HT concentration: 2.0 ± 0.3 nmol/g
  DA concentration: 107.4 ± 21.1 nmol/g
[2]; Nucleus Accumbens
  3-MT concentration: 3.5 ± 1.0 nmol/g
  5-HT concentration: 6.1 ± 0.8 nmol/g
  DA concentration: 82.2 ± 10.5 nmol/g
C57BL/6J mice; 3.75 mg/kg i.p., C57BL/6 mice
  Emax, maximum run distance per 5 min interval: 1312 ± 126 cm
  maximum total locomotor activity (total run distance during 240 min session): 24,401 ± 2043 cm
C57BL/6J mice; C57BL/6 mice
  dose giving maximal locomotor effect (Emax): 3.75 mg/kg

## CNC(C)Cc1cccs1 (stereo not shown) [methiopropamine, 1-(thiophen-2-yl)-2-methylaminopropane]
SERT
  IC50: 25.1 ± 2.91 µM
VMAT2; IC50 Synaptic Vesicles [3H]5-HT Uptake via VMAT2, rat brain synaptic vesicles
  IC50: 48.9 ± 5.02 µM
VMAT2; IC50 Synaptic Vesicles [3H]DA Uptake via VMAT2, rat brain synaptic vesicles
  IC50: 33.8 µM
VMAT2; IC50 Synaptic Vesicles [3H]NE Uptake via VMAT2, rat brain synaptic vesicles
  IC50: 47 ± 8.01 µM
VMAT2; IC50 vesicular uptake of DA, NE and 5-HT (span over the three substrates), rat brain synaptic vesicles
  IC50: 34 to 49 µM and > 25 µM and 10 to 50 µM
CD-1 mice [3]
  sudden deaths: 70 % deaths
DAT
  IC50: 0.74 ± 0.09 µM
DAT; DA, NE and 5-HT transporters
  potency, fold weaker compared with methamphetamine: approximately 5 ×
Sprague-Dawley rats
  dose with significant increase in locomotor activity: 5 mg/kg
[4]; fatal case of isolated methiopropamine use
  peripheral postmortem blood concentration: 38 µg/mL
[4]; fatal intoxication case
  blood concentration: 245 µM
NET
  IC50: 0.47 ± 0.06 µM
[1]; 5, 30 and 60 min after injection, […] methiopropamine vs 3.75 mg/kg methamphetamine, p > 0.05
  brain:blood ratios, comparison of the two drugs: no significant differences
[1]; blood and brain, […]
  half-life: ~30 min
[1]; brain, […]
  half-life: ~35 min
[1]; whole blood, […]
  half-life: ~31 min
CD-1 mice [5]
  dose with significant increase in locomotor activity: 10 mg/kg
C57BL/6J mice; […] i.p., C57BL/6 mice
  peak effect (Emax), maximum run distance per 5 min interval: 2037 ± 127 cm/5 min
C57BL/6J mice; C57BL/6 mice
  dose giving maximal locomotor effect (Emax): 12.5 mg/kg
C57BL/6J mice; mouse, in vivo
  sudden deaths: did not observe any sudden deaths
